Laboratory results published in paper PMC5846726, “Characterization of the Mel1c melatoninergic receptor in platypus (Ornithorhynchus anatinus)” (PLoS ONE, 2018).
Like-named read-outs stand apart in the source and are kept apart here.

Experiments:
Platypus Mel1C [1] = biological target: T1, Platypus Mel1C (Ornithorhynchus anatinus, UniProt A0A2P1K6N2); assay: 2-[125I]-iodomelatonin competition binding, membranes from stably transfected CHO cells, platypus Mel1c; conditions: membranes from stably transfected CHO cells, radioligand 2-[125I]-iodomelatonin; for Ki: read-out: Platypus Mel1C (converted)
T1 sequence (A0A2P1K6N2 1-349): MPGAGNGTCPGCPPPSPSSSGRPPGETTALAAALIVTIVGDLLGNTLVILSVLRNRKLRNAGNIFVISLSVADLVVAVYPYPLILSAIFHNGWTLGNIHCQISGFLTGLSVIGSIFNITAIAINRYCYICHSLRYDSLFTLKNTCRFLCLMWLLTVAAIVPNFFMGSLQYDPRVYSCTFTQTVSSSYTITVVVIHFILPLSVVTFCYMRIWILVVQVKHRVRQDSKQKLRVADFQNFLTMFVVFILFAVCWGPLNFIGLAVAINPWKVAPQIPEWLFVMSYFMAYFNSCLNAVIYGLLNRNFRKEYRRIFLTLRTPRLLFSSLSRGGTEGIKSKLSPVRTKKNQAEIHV
Protocol: (§1) CHO-Flp-In cells (Thermo Fisher Scientific, Waltham, USA) were cultivated in the presence of zeocin (0.1 mg/ml). The cells were cotransfected with either platypus (cloned sequence that will be submitted to GenBank) Mel1c/pcDNA5-FRT (platypus Mel1c) or X. laevis (NM 001087919.1) Mel1c/pcDNA5-FRT (clawed frog Mel1c) and Flp recombinase expression pOG44 plasmid using PEIpro (Invitrogen, Carlsbad, CA). CHO cells stably expressing platypus Mel1c or clawed frog Mel1c were selected using hygromycin (0.6 mg/ml). CHO-Flp-In-platypus Mel1c cells were grown in HAM F12 with 2 mM glutamine and supplemented with 10% fetal calf serum. Cells were selected using antibiotic pressure (hygromycin) for 72 h. […] After confirmation of the presence of the transgene, the cells were amplified up to 2 x 10^9 cells. This material was used to prepare the cell membranes used in further pharmacological experiments.
(§2) This standard procedure was described in a previous experiment with CHO cells expressing the sheep MT2 receptor [23]. […] The resulting pellet was suspended in 5 mM Tris/HCl (pH 7.4) containing 2 mM EDTA and homogenized using a Kinematica polytron. The homogenate was then centrifuged (20,000g, 30 min, 4°C) and the resulting pellet suspended in 75 mM Tris/HCl (pH 7.4) containing 2 mM EDTA and 12.5 mM MgCl2. The protein content was determined according to the method of Lowry et al. using the Bio-Rad kit (Bio-Rad SA, Ivry-sur-Seine, France). Aliquots of membrane preparations were stored in binding buffer (50 mM Tris/HCl, pH 7.4 containing 5 mM MgCl2 and 1 mM EDTA) at –80°C until use.
(§3) This approach has been described very often by our laboratory and others. […] The results were expressed as Ki, taking into account the concentration of radioligand used in each experiment. […] The reaction was stopped by rapid filtration through GF/B Unifilters, followed by three successive washes with ice-cold buffer. Data were analyzed by using the program PRISM (GraphPad Software Inc., San Diego, CA). For saturation assays, the density of binding sites (Bmax) and the dissociation constant of the radioligand (KD) were calculated according to the Scatchard method. […] A similar protocol was used when the binding was performed on whole cells, as described by Legros et al.. As per Plos One policy, all the raw data–listings from radioactivity counter are attached as raw files (Supplementary Tables A to M in S1 Data).

hMT2 = biological target: T2, hMT2 (Homo sapiens, UniProt P49286); assay: 2-[125I]-iodomelatonin competition binding, human MT2
T2 sequence (P49286 1-362): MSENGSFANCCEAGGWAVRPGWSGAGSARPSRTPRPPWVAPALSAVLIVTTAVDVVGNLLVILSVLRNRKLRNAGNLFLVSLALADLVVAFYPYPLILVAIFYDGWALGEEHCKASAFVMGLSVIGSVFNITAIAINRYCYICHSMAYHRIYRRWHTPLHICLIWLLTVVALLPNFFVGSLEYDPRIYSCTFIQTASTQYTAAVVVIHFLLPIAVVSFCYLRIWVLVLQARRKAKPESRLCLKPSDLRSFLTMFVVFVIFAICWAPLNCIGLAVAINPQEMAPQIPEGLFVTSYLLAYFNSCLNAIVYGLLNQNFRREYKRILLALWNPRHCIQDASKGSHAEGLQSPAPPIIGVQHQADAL
Protocol: as §3

hMT1 = hMT1 (Homo sapiens, UniProt P48039); assay: 2-[125I]-iodomelatonin competition binding, human MT1; parameters: hMT1: unit not given here
hMT1, sequence (P48039 whole entry): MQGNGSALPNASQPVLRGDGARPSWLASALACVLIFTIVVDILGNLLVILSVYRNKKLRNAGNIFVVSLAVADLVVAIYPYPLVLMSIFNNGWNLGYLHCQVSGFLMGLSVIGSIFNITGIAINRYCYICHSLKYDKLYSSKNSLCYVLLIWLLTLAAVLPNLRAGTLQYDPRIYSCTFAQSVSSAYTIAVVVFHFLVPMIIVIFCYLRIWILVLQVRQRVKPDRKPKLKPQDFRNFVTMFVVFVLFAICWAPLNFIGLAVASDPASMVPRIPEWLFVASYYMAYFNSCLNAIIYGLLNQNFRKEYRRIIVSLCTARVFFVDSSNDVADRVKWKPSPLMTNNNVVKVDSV
Protocol: as §3

Xenopus Mel1C = biological target: T3, Xenopus Mel1C (Xenopus laevis, UniProt P49219); assay: 2-[125I]-iodomelatonin competition binding, membranes from stably transfected CHO cells, Xenopus Mel1c; conditions: radioligand 2-[125I]-iodomelatonin
T3 construct: expressed in transfected cells
T3 sequence (P49219 1-420): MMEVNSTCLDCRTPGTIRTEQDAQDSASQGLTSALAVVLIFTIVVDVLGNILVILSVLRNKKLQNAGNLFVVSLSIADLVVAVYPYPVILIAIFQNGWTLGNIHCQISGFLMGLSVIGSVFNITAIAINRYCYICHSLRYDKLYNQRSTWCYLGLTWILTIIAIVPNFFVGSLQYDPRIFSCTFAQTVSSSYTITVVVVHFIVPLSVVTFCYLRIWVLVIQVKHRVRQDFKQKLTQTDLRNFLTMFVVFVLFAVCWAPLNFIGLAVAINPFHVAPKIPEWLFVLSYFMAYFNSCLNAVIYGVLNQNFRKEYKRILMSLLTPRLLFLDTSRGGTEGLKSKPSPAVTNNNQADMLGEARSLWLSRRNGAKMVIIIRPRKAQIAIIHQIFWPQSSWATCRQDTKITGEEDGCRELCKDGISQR
Protocol: as §1, §2, §3

G. gallus Mel1c receptor = biological target: T4, G. gallus Mel1c receptor (Gallus gallus, UniProt P49288); assay: 2-[125I]-iodomelatonin competition binding, transiently transfected COS7 cells, chicken Mel1c
T4 construct: expressed in transfected cells; host or cells: COS7 (transient nucleofection, pCIneo vector)
T4 sequence (P49288 1-346): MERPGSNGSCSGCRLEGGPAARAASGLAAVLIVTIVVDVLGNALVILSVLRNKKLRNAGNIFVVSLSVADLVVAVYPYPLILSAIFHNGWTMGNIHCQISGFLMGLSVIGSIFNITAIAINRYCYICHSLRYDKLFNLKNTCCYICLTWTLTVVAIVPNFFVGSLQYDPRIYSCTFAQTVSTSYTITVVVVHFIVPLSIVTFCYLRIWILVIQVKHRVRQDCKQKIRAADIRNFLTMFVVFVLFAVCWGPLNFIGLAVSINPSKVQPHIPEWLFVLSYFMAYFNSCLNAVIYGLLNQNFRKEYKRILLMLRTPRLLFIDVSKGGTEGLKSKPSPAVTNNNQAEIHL
Protocol: (§4) COS7 cells obtained from the American Type Culture Collection were maintained in DMEM GlutaMAX (Thermo Fisher Scientific, Waltham, USA) supplemented with 10% (v/v) fetal calf serum. Nucleofection of COS7 cells was performed according to the manufacturer's instructions using the Nucleofector machine (Amaxa, Cologne, Germany). Adherent COS7 cells were washed in phosphate-buffered saline (PBS), trypsinized, and gently resuspended in V nucleofection solution to a final concentration of 7 × 10^6 cells/100 μl. Next, 5 μg of pCIneo/Mel1c vector was mixed with 100 μl of the COS7 cell suspension, transferred to a […] electroporation cuvette, and nucleofected using program A024 and an Amaxa Nucleofector apparatus. Just after the nucleofection, 500 μl of media supplemented with 20% (v/v) fetal calf serum was added to the cell suspension and cultured in a humidified 37°C, 5% CO2 incubator for 20 minutes. Fourteen million cells were transferred to a T225 flask containing 50 ml of media supplemented with 20% (v/v) fetal calf serum and cultured in a humidified 37°C, 5% CO2 incubator. Two days after transfection, the cells were harvested in PBS, pelleted, and stored at -80°C until use.
as §3
(§5) To obtain stable expression of the receptor for future studies, a preliminary step involving transient expression of the receptor was performed. The Mel1c receptors from the three species were expressed in transiently transfected COS7 cells. A limited number of compounds were tested in order to gain a preliminary perception of the characteristics of Mel1c from these species.

Platypus Mel1C [2] = biological target: T1, Platypus Mel1C; assay: 2-[125I]-iodomelatonin competition binding, transiently transfected COS7 cells, platypus Mel1c; conditions: COS7 cells transiently transfected with Mel1c gene; radioligand 2-[125I]-iodomelatonin; two transfections, triplicate
Protocol: as §4, §3, §5

X. laevis Mel1c receptor = biological target: T5, X. laevis Mel1c receptor (Xenopus laevis, UniProt P49219); assay: 2-[125I]-iodomelatonin competition binding, transiently transfected COS7 cells, Xenopus Mel1c; conditions: COS7 cells transiently transfected with Mel1c gene, radioligand 2-[125I]-iodomelatonin, two transfections, triplicate; for Ki: read-out: pKi Xenopus laevis (converted)
T5 construct: expressed in transfected cells; host or cells: COS7 (transient nucleofection, pCIneo vector)
T5 sequence (P49219 1-354 isoform P49219-2): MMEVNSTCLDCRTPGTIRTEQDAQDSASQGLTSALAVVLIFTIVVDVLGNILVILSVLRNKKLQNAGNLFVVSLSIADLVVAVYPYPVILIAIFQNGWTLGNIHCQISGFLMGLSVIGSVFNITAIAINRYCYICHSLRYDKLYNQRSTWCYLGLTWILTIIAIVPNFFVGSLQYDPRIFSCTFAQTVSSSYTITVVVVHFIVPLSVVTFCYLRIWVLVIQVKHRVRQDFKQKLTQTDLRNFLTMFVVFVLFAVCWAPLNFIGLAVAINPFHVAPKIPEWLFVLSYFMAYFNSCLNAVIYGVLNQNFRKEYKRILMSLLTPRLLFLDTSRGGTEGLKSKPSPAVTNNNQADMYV
Protocol: as §4, §3, §5

[3] = membranes from stably transfected CHO cells, radioligand 2-[125I]-iodomelatonin, read-out: hMT2 (converted)
[4] = membranes from stably transfected CHO cells, radioligand 2-[125I]-iodomelatonin, read-out: hMT1 (converted)
[5] = membranes from stably transfected CHO cells, radioligand 2-[125I]-iodomelatonin
[6] = COS7 cells transiently transfected with Mel1c gene, radioligand 2-[125I]-iodomelatonin, two transfections, triplicate

Molecule	Ki (Platypus Mel1C [1]) [nM]	Ki (Xenopus Mel1C) [nM]	Ki (hMT2; [3]) [nM]	Ki (hMT1; [4]) [nM]	pKi Ornithorhyncus anatinus (Platypus Mel1C [2])	other results
COc1ccc2cccc(C(CO)CNC(=O)CF)c2c1 (centres unmarked) [S75436, 2-fluoro-N-[3-hydroxy-2-(7-methoxy-1-naphthyl)propyl]acetamide]	6.31	15.8	–	–	–	Ki (hMT2): 1.26 nM; Ki (hMT1): 12.6 nM
COc1cc2c(CCNC(C)=O)c[nH]c2cc1I [6-Iodomelatonin, N-[2-(6-iodo-5-methoxy-1H-indol-3-yl)ethyl]acetamide]	3.98	7.94	2.51	1.58	–	–
COc1ccc2[nH]cc(CCNC(=O)CI)c2c1 [SD6, N-[2-(5-methoxy-1H-indol-3-yl)ethyl]iodoacetamide]	0.398	0.501	–	–	–	–
CC(=O)NCCc1c(Cc2ccccc2)[nH]c2ccccc12 [Luzindole, N-acetyl-2-benzyltryptamine]	2510	2510	25.1	–	5.9	Ki (G. gallus Mel1c receptor): 3980 nM; hMT1 (hMT1; [5]): 6.6; Ki (X. laevis Mel1c receptor): 2000 nM
CCc1ccc2scc(CCNC(C)=O)c2c1 [S22153, N-[2-(5-ethylbenzothiophen-3-yl)ethyl]acetamide]	50.1	126	10	6.31	7.6	Ki (G. gallus Mel1c receptor; COS7 cells transiently transfected with Mel1c gene, radioligand 2-[125I]-iodomelatonin, two transfections, triplicate, read-out: pKi Gallus gallus (converted)): 200 nM; Ki (X. laevis Mel1c receptor): 100 nM
COc1cc(I)c2[nH]cc(CCNC(C)=O)c2c1 [7-Iodomelatonin]	–	–	–	–	–	pKi (Platypus Mel1C [1]): 7.5; hMT2 (hMT2): 7.3; hMT1 (hMT1): 7.3; pKi (Xenopus Mel1C): 7.3
COc1ccc2cccc(CCNC(C)=O)c2c1 [Agomelatin ®, N-(2-(7-methoxynaphthalen-1-yl)ethyl)acetamide]	0.398	0.794	–	–	9.6	Ki (X. laevis Mel1c receptor): 0.631 nM
COc1ccc2[nH]cc(CCNC(C)=O)c2c1I [4-Iodomelatonin, N-[2-(4-iodo-5-methoxy-1H-indol-3-yl)ethyl]acetamide]	100	251	12.6	15.8	–	–
2-(2-[(2-iodo-4,5-dimethoxyphenyl)methyl]-4,5-dimethoxy phenyl [DIV880]	–	–	–	–	–	pKi (Platypus Mel1C [1]): 6.2; hMT2 (hMT2; [5]): 8.0; hMT1 (hMT1; [5]): 6.1; pKi (Xenopus Mel1C): 5.9
COc1ccc(CCN(C)CCCC(C#N)(c2cc(OC)c(OC)c(OC)c2)C(C)C)cc1OC (centres unmarked) [D600, methoxyverapamil]	2000	2000	> 10000	100	–	–
COc1ccc2[nH]c(I)c(CCNC(C)=O)c2c1 [2-Iodomelatonin, 2-iodomelatonin]	–	–	–	–	10.2	pKi Gallus gallus (G. gallus Mel1c receptor; [6]): 9.8; pKi Xenopus laevis (X. laevis Mel1c receptor): 10.0
COc1cc2c(CCNC(C)=O)c(I)[nH]c2cc1[N+](=O)[O-] [S27128, N-[2-(2-iodo-5-methoxy-6-nitro-1H-indol-3-yl)ethyl]acetamide]	1	2.51	–	1.26	–	–
COCC(CNC(C)=O)c1cccc2ccc(OC)cc12 (centres unmarked) [S73893, N-[3-methoxy-2-(7-methoxy-1-naphthyl)propyl]acetamide]	20	39.8	7.94	3.98	–	–
O=C(NCCc1cccc2ccccc12)C1CCC1 [S20928, (N-[2-(1-naphthyl)ethyl]cyclobutanecarboxamide)]	794	1260	79.4	79.4	–	–
COc1ccc2[nH]c(-c3cccc4ccccc34)c(CCNC(=O)CI)c2n1 [S70254]	–	–	–	–	6.6	pKi Gallus gallus (G. gallus Mel1c receptor; [6]): 6.6; hMT2 (hMT2; [5]): 9.0; hMT1 (hMT1; [5]): 7.0; pKi (Xenopus Mel1C): 6.3; pKi Xenopus laevis (X. laevis Mel1c receptor): 6.8
(S)-N-(2-(1,6,7,8-tetrahydro-2H-indeno-(5,4)furan-8-yl)ethyl)propionamide [Ramelteon ®]	–	–	–	–	10.1	pKi Gallus gallus (G. gallus Mel1c receptor; [6]): 9.8; Platypus Mel1C (Platypus Mel1C [1]): 9.9; hMT1 (hMT1; [5]): 10.1; Xenopus Mel1C (Xenopus Mel1C): 9.9; pKi Xenopus laevis (X. laevis Mel1c receptor): 10.1
COc1ccc2ncn(CCNC(C)=O)c2c1 [S21278, N-[2-(6-methoxybenzimidazol-1-yl)ethyl]acetamide]	2000	1580	631	631	–	–
